How the values were obtained:
Pseudomonas sp. = test: Agar diffusion growth inhibition zone, Pseudomonas sp.; format: cell-based, Pseudomonas species; conditions: for zone of inhibition at 100000 µg/disc / zone of inhibition at 150000 µg/disc: Pseudomonas; for zone of inhibition: Pseudomonas sp., 6 mm = no activity
Protocol: (§7) Agar well diffusion method is widely used to evaluate the antimicrobial activity of plants or other synthetic products. The suspension (microbial inoculum) was used to inoculate into Muller Hinton Agar Petri plates by lawn culture. Well (diameter 6 mm) were punched in the agar by sterile borer and filled with 50 μl of dissolved extracts. Plates were incubated in incubator at 37° C. for 24 hours and measured the growth inhibition zone diameters in mm compared with that of control (DMSO) showing no growth. The antimicrobial agent diffuses in the agar medium and inhibits the growth of the microbial strain tested (Valgas et al., (2016) Methods for in vitro evaluating antimicrobial activity: A review. Journal of Pharmaceutical Analysis. 6(2):71-9).
(§8) Similar to the procedure used in Agar well diffusion method, the suspension (microbial inoculum) was used to inoculate into Muller Hinton Agar Petri plates by lawn culture. Then, filter paper discs (about 6 mm in diameter), containing the test compound at a desired concentration, were placed on the agar surface. The Petri dishes were incubated under suitable incubation conditions. Generally, antimicrobial agent diffuses into the agar and inhibits germination and growth of the test microorganism and then the diameters of inhibition growth zones are measured (Valgas et al., (2007) Screening methods to determine antibacterial activity of natural products. Brazilian Journal of Microbiology. 38:369-80; Balouiri M et al., (2016) Methods for in vitro evaluating antimicrobial activity: A review. Journal of Pharmaceutical Analysis. 6(2):71-9).

Proteus sp. = test: Agar diffusion growth inhibition zone, Proteus sp.; format: cell-based, Proteus species
Protocol: (§1) Among the bacterial agents tested Gram positive and Gram negative bacterial groups represented by Staphylococcus aureus and Enterococcus species and pathogenic members of Enterobacteriaceae, Vibronaceae, Aeromonadaceae, Pseudomonadaceae were tested. Freshly sub-cultured bacterial strains were inoculated into peptone water and incubated for 4 hours at 37° C. and adjusted to a turbidity of 0.5 (Gram Negative Bacilli), 1 (Gram Positive Cocci) and 4 (Pus cells, GNB, & few Budding yeast cells) Mc Farland standards (10^8 CFU/ml) respectively.
(§2) The different bioactive compounds and their derivatives were dissolved and diluted with solvents (DMSO), number of subsequent dilutions was performed to obtain different concentrations of the bioactive compounds and their derivatives. (Working Concentrations).
(§3) Agar well diffusion method is widely used to evaluate the antimicrobial activity of plants or other synthetic products. The suspension (microbial inoculum) was used to inoculate into Muller Hinton Agar Petri plates by lawn culture. Well (diameter 6 mm) were punched in the agar by sterile borer and filled with 50 μl of dissolved extracts. Plates were incubated in incubator at 37° C. for 24 hours and measured the growth inhibition zone diameters in mm compared with that of control (DMSO) showing no growth.
(§4) The bioactive compounds were tested with desired concentrations in 6 mm filter paper discs (Whatman, no. 3) were impregnated with 10 μL of each of the different dilutions. The discs were allowed to remain at room temperature until complete diluent evaporation and kept under refrigeration until ready to be used. 10 μL of diluents used to products were used as control. Tests were performed by Agar disk-diffusion testing method, which is the official method used in many clinical microbiology laboratories for routine antimicrobial susceptibility testing.
(§5) Similar to the procedure used in Agar well diffusion method, the suspension (microbial inoculum) was used to inoculate into Muller Hinton Agar Petri plates by lawn culture. Then, filter paper discs (about 6 mm in diameter), containing the test compound at a desired concentration, were placed on the agar surface. The Petri dishes were incubated under suitable incubation conditions.
(§6) Bioactive compounds showing zone of inhibition beyond the size of 6 mm are considered to be having an anti-microbial activity.

Shigella sp. = test: Agar diffusion growth inhibition zone, Shigella sp.; format: cell-based, Shigella species; conditions: for zone of inhibition at 100000 µg/disc / zone of inhibition at 150000 µg/disc: Shigella; for zone of inhibition: Shigella sp., 6 mm = no activity
Protocol: as §7, §8

EAEC = test: Agar diffusion growth inhibition zone, EAEC; format: cell-based, Enteroaggregative E. coli; conditions: for zone of inhibition at 100 mg/mL / zone of inhibition at 150 mg/mL: Escherichia coli; for zone of inhibition at 100 mg/mL / zone of inhibition at 150 mg/mL / zone of inhibition: 6 mm = no activity
Protocol: as §1, §2, §3, §4, §5, §6

Citrobacter sp. = test: Agar diffusion growth inhibition zone, Citrobacter sp.; format: cell-based, Citrobacter species; conditions: 6 mm = no activity
Protocol: as §1, §2, §3, §4, §5, §6

E. coli ATCC 25922 = test: Agar diffusion growth inhibition zone, E. coli ATCC 25922; format: cell-based; conditions: 6 mm = no activity; for zone of inhibition at 100 mg/mL / zone of inhibition at 150 mg/mL: Escherichia coli; for zone of inhibition at 100 mg/mL: ATCC25922, 100 mg; for zone of inhibition at 150 mg/mL: ATCC25922, 150 mg
Protocol: as §1, §2, §3, §4, §5, §6

Aeromonas sp. = test: Agar diffusion growth inhibition zone, Aeromonas sp.; format: cell-based, Aeromonas species; conditions: for zone of inhibition at 100 mg/mL / zone of inhibition at 150 mg/mL / zone of inhibition: Aeromonas sp., 6 mm = no activity
Protocol: as §1, §2, §3, §4, §5, §6

ETEC = test: Agar diffusion growth inhibition zone, ETEC; format: cell-based, Enterotoxigenic E. coli; conditions: for inhibition of growth / zone of inhibition: ETEC; for zone of inhibition at 100000 µg/disc / zone of inhibition at 150000 µg/disc: Escherichia coli; for zone of inhibition: 6 mm = no activity
Protocol: as §7, §8

Vibrio cholera = test: Agar diffusion growth inhibition zone, Vibrio cholera; format: cell-based, Vibrio cholerae; conditions: for zone of inhibition at 100000 µg/disc / zone of inhibition at 150000 µg/disc: Vibrio cholerae; for zone of inhibition: Vibrio cholera, 6 mm = no activity
Protocol: as §7, §8

Pleisiomonas sp. = test: Agar diffusion growth inhibition zone, Pleisiomonas sp.; format: cell-based, Pleisiomonas species; conditions: for zone of inhibition at 100 mg/mL / zone of inhibition at 150 mg/mL / zone of inhibition: Pleisiomonas sp., 6 mm = no activity; for inhibition of growth: Plesiomonas species
Protocol: as §1, §2, §3, §4, §5, §6

Enterococcus sp. = test: Agar diffusion growth inhibition zone, Enterococcus sp.; format: cell-based, Enterococcus species; conditions: 6 mm = no activity
Protocol: as §1, §2, §3, §4, §5, §6

Klebsiella sp. = test: Agar diffusion growth inhibition zone, Klebsiella sp.; format: cell-based, Klebsiella species; conditions: 6 mm = no activity
Protocol: as §1, §2, §3, §4, §5, §6

Candida abicans = test: Agar diffusion growth inhibition zone, Candida abicans; format: cell-based, Candida albicans; conditions: 6 mm = no activity
Protocol: as §1, §2, §3, §4, §5, §6

S. aureus = test: Agar diffusion growth inhibition zone, S. aureus; format: cell-based, Staphylococcus aureus; conditions: for zone of inhibition at 100 mg/mL / zone of inhibition at 150 mg/mL: Staphylococcus aureus
Protocol: as §1, §2, §3, §4, §5, §6

Salmonella typhimurium = test: Agar diffusion growth inhibition zone, Salmonella typhimurium; format: cell-based; conditions: 6 mm = no activity; for zone of inhibition at 100 mg/mL / zone of inhibition at 150 mg/mL: Salmonella enterica
Protocol: as §1, §2, §3, §4, §5, §6

[1] = Proteus sp., 150 mg, 6 mm = no activity

Molecule: CCOC(=O)Oc1ccc(/C=C/C(=O)COC(=O)/C=C/c2ccc(OC(=O)OCC)c(OC)c2)cc1OC [compound 7, Diethylcalebin-A dicarbonate]
- zone of inhibition at 100000 µg/disc (Pseudomonas sp.): 6 mm
- zone of inhibition at 150000 µg/disc (Pseudomonas sp.): 6 mm
- zone of inhibition at 150 mg/mL (Proteus sp.; [1]): 6 mm
- zone of inhibition at 100000 µg/disc (Shigella sp.): 6 mm
- zone of inhibition at 150000 µg/disc (Shigella sp.): 6 mm
- inhibition of growth (EAEC): inhibited
- zone of inhibition at 100 mg/mL (EAEC; 100 mg): 9 mm
- zone of inhibition at 150 mg/mL (EAEC; 150 mg): 9 mm
- zone of inhibition at 100 mg/mL (Citrobacter sp.; 100 mg): 6 mm
- zone of inhibition at 150 mg/mL (Citrobacter sp.; 150 mg): 6 mm
- zone of inhibition at 100 mg/mL (E. coli ATCC 25922): 6 mm
- zone of inhibition at 150 mg/mL (E. coli ATCC 25922): 6 mm
- zone of inhibition at 100 mg/mL (Aeromonas sp.; 100 mg): 6 mm
- zone of inhibition at 150 mg/mL (Aeromonas sp.; 150 mg): 6 mm
- inhibition of growth (ETEC): significantly inhibited the growth
- zone of inhibition at 100000 µg/disc (ETEC): 10 mm
- zone of inhibition at 150000 µg/disc (ETEC): 10 mm
- zone of inhibition at 100000 µg/disc (Vibrio cholera): 6 mm
- zone of inhibition at 150000 µg/disc (Vibrio cholera): 6 mm
- zone of inhibition at 100 mg/mL (Pleisiomonas sp.; 100 mg): 10 mm
- zone of inhibition at 150 mg/mL (Pleisiomonas sp.; 150 mg): 10 mm
- inhibition of growth (Pleisiomonas sp.): inhibited
- zone of inhibition at 100 mg/mL (Enterococcus sp.; 100 mg): 6 mm
- zone of inhibition at 150 mg/mL (Enterococcus sp.; 150 mg): 6 mm
- zone of inhibition at 100 mg/mL (Klebsiella sp.; 100 mg): 6 mm
- zone of inhibition at 150 mg/mL (Klebsiella sp.; 150 mg): 6 mm
- zone of inhibition at 100 mg/mL (Candida abicans; 100 mg): 6 mm
- zone of inhibition at 150 mg/mL (Candida abicans; 150 mg): 6 mm
- zone of inhibition at 100 mg/mL (S. aureus; 100 mg, 6 mm = no activity): 6 mm
- zone of inhibition at 150 mg/mL (S. aureus; 150 mg, 6 mm = no activity): 6 mm
- zone of inhibition at 100 mg/mL (Salmonella typhimurium; 100 mg): 6 mm
- zone of inhibition at 150 mg/mL (Salmonella typhimurium; 150 mg): 6 mm

Molecule: COc1cc(CCC(=O)/C=C(\N)CCc2ccc(O)c(OC)c2)ccc1O [compound 9, Amino- tetrahydrocurcumin]
- zone of inhibition at 100000 µg/disc (Pseudomonas sp.): 6 mm
- zone of inhibition at 150000 µg/disc (Pseudomonas sp.): 6 mm
- zone of inhibition at 150 mg/mL (Proteus sp.; [1]): 6 mm
- zone of inhibition at 100000 µg/disc (Shigella sp.): 6 mm
- zone of inhibition at 150000 µg/disc (Shigella sp.): 6 mm
- zone of inhibition at 100 mg/mL (EAEC; 100 mg): 6 mm
- zone of inhibition at 150 mg/mL (EAEC; 150 mg): 6 mm
- zone of inhibition at 100 mg/mL (Citrobacter sp.; 100 mg): 6 mm
- zone of inhibition at 150 mg/mL (Citrobacter sp.; 150 mg): 6 mm
- zone of inhibition at 100 mg/mL (E. coli ATCC 25922): 6 mm
- zone of inhibition at 150 mg/mL (E. coli ATCC 25922): 6 mm
- zone of inhibition at 100 mg/mL (Aeromonas sp.; 100 mg): 6 mm
- zone of inhibition at 150 mg/mL (Aeromonas sp.; 150 mg): 6 mm
- zone of inhibition at 100000 µg/disc (ETEC): 9 mm
- zone of inhibition at 150000 µg/disc (ETEC): 9 mm
- zone of inhibition at 100000 µg/disc (Vibrio cholera): 6 mm
- zone of inhibition at 150000 µg/disc (Vibrio cholera): 6 mm
- zone of inhibition at 100 mg/mL (Pleisiomonas sp.; 100 mg): 6 mm
- zone of inhibition at 150 mg/mL (Pleisiomonas sp.; 150 mg): 6 mm
- zone of inhibition at 100 mg/mL (Enterococcus sp.; 100 mg): 6 mm
- zone of inhibition at 150 mg/mL (Enterococcus sp.; 150 mg): 6 mm
- zone of inhibition at 100 mg/mL (Klebsiella sp.; 100 mg): 6 mm
- zone of inhibition at 150 mg/mL (Klebsiella sp.; 150 mg): 6 mm
- zone of inhibition at 100 mg/mL (Candida abicans; 100 mg): 6 mm
- zone of inhibition at 150 mg/mL (Candida abicans; 150 mg): 6 mm
- zone of inhibition at 100 mg/mL (S. aureus; 100 mg, 6 mm = no activity): 6 mm
- zone of inhibition at 150 mg/mL (S. aureus; 150 mg, 6 mm = no activity): 6 mm
- zone of inhibition at 100 mg/mL (Salmonella typhimurium; 100 mg): 6 mm
- zone of inhibition at 150 mg/mL (Salmonella typhimurium; 150 mg): 6 mm

Molecule: Demethoxycurcumin [compound 2]
- zone of inhibition (Pseudomonas sp.; 100 mg): 6 mm
- zone of inhibition (Pseudomonas sp.; 150 mg): 6 mm
- zone of inhibition (Proteus sp.; Proteus sp., 100 mg, 6 mm = no activity): 12 mm
- zone of inhibition (Proteus sp.; [1]): 12 mm
- zone of inhibition (Proteus sp.; Proteus species, at both concentrations of 100 mg and 150 mg): 12 mm
- zone of inhibition (Shigella sp.; 100 mg): 6 mm
- zone of inhibition (Shigella sp.; 150 mg): 6 mm
- zone of inhibition (EAEC; 100 mg): 6 mm
- zone of inhibition (EAEC; 150 mg): 6 mm
- zone of inhibition (Citrobacter sp.; 100 mg): 6 mm
- zone of inhibition (Citrobacter sp.; 150 mg): 6 mm
- zone of inhibition (E. coli ATCC 25922; 100 mg): 6 mm
- zone of inhibition (E. coli ATCC 25922; 150 mg): 6 mm
- zone of inhibition (Aeromonas sp.; 100 mg): 9 mm
- zone of inhibition (Aeromonas sp.; 150 mg): 9 mm
- inhibition of growth (Aeromonas sp.; Aeromonas species): inhibited the growth
- inhibition of growth (ETEC): significantly inhibited the growth
- zone of inhibition (ETEC; 100 mg): 12 mm
- zone of inhibition (ETEC; 150 mg): 12 mm
- zone of inhibition (Vibrio cholera; 100 mg): 6 mm
- zone of inhibition (Vibrio cholera; 150 mg): 6 mm
- zone of inhibition (Pleisiomonas sp.; 100 mg): 11 mm
- zone of inhibition (Pleisiomonas sp.; 150 mg): 11 mm
- inhibition of growth (Pleisiomonas sp.): inhibited
- zone of inhibition (Enterococcus sp.; 100 mg): 6 mm
- zone of inhibition (Enterococcus sp.; 150 mg): 6 mm
- zone of inhibition (Klebsiella sp.; 100 mg): 6 mm
- zone of inhibition (Klebsiella sp.; 150 mg): 6 mm
- zone of inhibition (Candida abicans; 100 mg): 6 mm
- zone of inhibition (Candida abicans; 150 mg): 6 mm
- zone of inhibition (S. aureus; 100 mg, 6 mm = no activity): 11 mm
- zone of inhibition (S. aureus; 150 mg, 6 mm = no activity): 11 mm
- zone of inhibition (S. aureus; concentration not given): 11 mm
- zone of inhibition (Salmonella typhimurium; 100 mg): 6 mm
- zone of inhibition (Salmonella typhimurium; 150 mg): 6 mm
